Measured values: patent US20200281202A1 (priority 2017, published 2020)

Key:
Plasmopara viticola = Plasmopara viticola test in grape, preventive; format: in vivo; settings: Plasmopara viticola, 50 ppm spray, grape seedlings inoculated one day after treatment, read-out: control (disease severity) compared to the untreated check
Protocol: Example B: Plasmopara viticola Test in Grape
Compounds were dissolved in 2% DMSO/Acetone & then mixed with water to calibrated spray volume of 50 ml. This 50 ml spray solution was poured into the spray bottles for further applications.
To test the preventive activity of compounds, five week old healthy grape seedlings raised in the greenhouse were sprayed with active compound preparation at the stated application rates inside the spray cabinets using hallow-cone nozzles. One day after treatment, the plants were inoculated with inoculum suspension (Cold sterile water) containing 6×10^6 Plasmopara viticola inoculum. The inoculated plants were then kept in greenhouse chamber at 18-21° C. temperature and 95-100% relative humidity for disease expression. Compounds
A visual assessment of compound's performance was carried by rating the disease severity (0-100% scale) on treated plants on 3, 7, 10 and 15 days after application. Efficacy (% control) of the compounds was calculated by comparing the disease rating in the treatment with untreated control. The sprayed plants were also assessed for compound's phytotoxic effects by recording symptoms like necrosis, chlorosis and stunting.

Phytophthora infestans [1] = assay: microbe, parasite or virus in culture; format: cell-based; settings: Phytophthora infestans, 168 h, read-out: control (radial growth) compared to the untreated check
Phytophthora infestans [2] = assay: whole plant or invertebrate; format: in vivo; settings: Phytophthora infestans, in Solanum lycopersicum, read-out: control (disease severity) compared to the untreated check

Row | SMILES | pest or weed control at 50 ppm (Plasmopara viticola) [%] | inhibition of growth at 30 ppm (Phytophthora infestans [1]) [%] | pest or weed control at 50 ppm (Phytophthora infestans [2]) [%]
1 | O=C(COc1ncccc1C(F)(F)F)N1CCC(c2nc(C3=NOC(c4ccccc4F)C3)cs2)CC1 (stereo not drawn) [Compound 66, 1-(4-(4-(5-(2-fluorophenyl)-4,5-dihydroisoxazol-3-yl)thiazol-2-yl)piperidin-1-yl)-2-((3-(trifluoromethyl)pyridin-2-yl)oxy)ethan-1-one] | 90 | 70 | 90
2 | Cc1cccnc1OCC(=O)N1CCC(c2nc(C3=NOC(c4c(Cl)cccc4Cl)C3)cs2)CC1 (stereo not drawn) [Compound 76, 1-(4-(4-(5-(2,6-dichlorophenyl)-4,5-dihydroisoxazol-3-yl)thiazol-2-yl)piperidin-1-yl)-2-((3-methylpyridin-2-yl)oxy)ethan-1-one] | 90 | 70 | 90
3 | Cc1cccnc1OCC(=O)N1CCC(c2nc(C3=NOC(c4c(F)cccc4F)C3)cs2)CC1 (stereo not drawn) [Compound 77, 1-(4-(4-(5-(2,6-difluorophenyl)-4,5-dihydroisoxazol-3-yl)thiazol-2-yl)piperidin-1-yl)-2-((3-methylpyridin-2-yl)oxy)ethan-1-one] | 90 | 70 | 90
4 | Cc1cccnc1OCC(=O)N1CCC(c2nc(C3=NOC(c4c(Cl)cc(Cl)cc4Cl)C3)cs2)CC1 (stereo not drawn) [Compound 79] | 90 | 70 | 90
5 | O=C(COc1ncccc1C(F)F)N1CCC(c2nc(C3=NOC(c4c(F)cccc4F)C3)cs2)CC1 (stereo not drawn) [Compound 86, 2-((3-(difluoromethyl)pyridin-2-yl)oxy)-1-(4-(4-(5-(2,6-difluorophenyl)-4,5-dihydroisoxazol-3-yl)thiazol-2-yl)piperidin-1-yl)ethan-1-one] | 90 | 70 | 90
6 | O=C(COc1ncccc1C(F)F)N1CCC(c2nc(C3=NOC(c4c(Cl)cc(Cl)cc4Cl)C3)cs2)CC1 (stereo not drawn) [Compound 87] | 90 | 70 | 90
